Measured values: patent US6537545B1, “Use of corneal hardening agents in enzymeorthokeratology” (ISTA Pharmaceuticals, Inc., priority 1998, dated 2003)

Key:
cornea = assay: Corneal elasticity, recovery from indentation by spherical glass indentor (Example 7); type: in vivo, human; conditions: eyes injected with hyaluronidase solution
Description: A precision spherical glass indentor was used to contact the corneal surface of subjects treated with the methods of the present invention to measure changes in corneal elasticity. The method used involved the application of the indentor, in the form of a small spherical ball to gently deflect into a test cornea to establish an initial deflection value. Measurements were taken by using an interferometer to view the deflection. Following this application, the relaxation period was measured by observing the change in the impression made by the indentor.
The indentation range of movement was characterized using a precision linear variable differential transducer (LVDT) device that measured the linear travel of a stage carrying the indentor probe. The average travel distance of the probe was established at approximately 700 micrometers. The contact depth of the indentor probe was measured by evaluating the corneal surface immediately after indentation and measuring the local height values caused by the probe contact. This value was measured to range from 266 to 300 micrometers.
A digital timer was used to mark the beginning and ending times during observation. Changes in the impression were readily observed during this period. The final end point was considered to be when the local fringe disturbance was recovered blending with the undisturbed neighboring fringes. […] However, given the time scales involved, the value of this error is considered to be small.
The method of inducing corneal inflection involved first contacting the test corneal with the indentor. After the initial contact with the cornea was established, the probe was moved forward into the cornea to a predetermined distance. Seven hundred microns was used to achieve adequate deflection. Topography was taken immediately after the deflection to record the impression made in the cornea. Observations of the cornea were then made at one (1) minute intervals to note the change in the impression made. […] Another topography was done after five (5) minutes to record the final condition of the impression. […]

[1] = tested on: eye of myopic human patient; assay: Safety and efficacy of hyaluronidase and topical 3% glyceraldehyde solution, myopia in a human patient (Example 8); type: in vivo; conditions: one subject, baseline UVA 20/300; 50 IU hyaluronidase, 7 days incubation, 7 days corrective lens wear, before drops
Description: In this study, a single subject was selected to test the safety and efficacy of using hyaluronidase and a glyceraldehyde solution to treat sub-optimal visual acuity. In this study, the subject was first medically evaluated and a baseline was established. A medical history of the subject was taken and a detailed examination of the subject's eyes was also performed. The subject's eyes were tested to determine: refraction, cell count, intraocular pressure (IOP), pachymetry, corneal topography and corneal elasticity. A slit-lamp examination was also performed to establish the health of the eyes. Also, the presence of any general or ocular discomfort of the subject was noted.
Following the establishment of a baseline reading (UVA 20/300), the subject was administered a single intrastromal injection of 50 IU hyaluronidase prior to the orthokeratology treatment. Following 7 days of incubation of the subject's eyes with the injected material, the subject was fitted with corrective contact lenses for overnight wear. The subject wore the corrective lenses day and night for a period of seven (7) days. At this point the subject's visual acuity was 20/15. […] The visual acuity of the subject was then monitored for 196 days to determine the effect of the treatment on the unaided visual acuity of the subject;

[2] = tested on: eyes of myopic human subjects; assay: Mild myopia study, group I: 50 IU hyaluronidase, corrective lenses, 3% glyceraldehyde (Example 9); type: in vivo; conditions: 50 IU hyaluronidase and corrective lenses
Excerpt: (§1) Given the favorable results obtained in Example 8, an additional study was undertaken to test the safety and efficacy of the method of the present invention using a larger group of subjects. In this study, a group of subjects were selected and randomly separated into three test groups to test the safety and efficacy of using hyaluronidase and a glyceraldehyde solution for treating subjects with sub-optimal visual acuity. Groups one and two received an intrastromal injection of hyaluronidase (50 and 500 IU, respectively), while group three received a control injection of saline.
(§2) Following a two week incubation period after the injection, the three groups were fitted with corrective lenses to optimize the visual acuity of the subjects. The corrective lenses were left in place for a period of time sufficient to alter the shape of the subjects' eyes so as to achieve an optimal visual acuity. This period of time was generally 2 days in length. Once an acceptable visual acuity was achieved, the subjects in the three groups received a topical 3% glyceraldehyde solution in the form of ophthalmic drops four times per day while wearing the corrective lenses. The glyceraldehyde treatment was generally administered for one month. Lens wear occurred from 8 to 12 hours during the day.
(§3) At the end of the treatment period both the lens wear and the glyceraldehyde solution administration was terminated. The general health and visual acuity of the subjects was monitored from 3 to 5 months following treatment termination.
Before beginning the experimental protocol, test subjects were examined initially to establish a baseline from which the future results of the treatment were compared. For each subject a medical history was taken and a detailed examination of the eyes was also performed. The eyes of each subject were tested to determine: refraction cell count, intraocular pressure (IOP), pachymetry, corneal topography and corneal elasticity. A slit-lamp examination was also performed to establish the health of the eye. Also, the presence of any general or ocular discomfort of the subjects was noted.
Following the establishment of a baseline reading, group 1 subjects were administered a single intrastromal injection of 50 IU hyaluronidase prior to the orthokeratology treatment. Following 14 days of incubation, the subjects were fitted with corrective contact lenses for overnight wear. Subjects wore the corrective lenses night and day for a period of two (2) to seven (7) days or until visual 20/20 visual acuity was achieved. Subjects achieving an acceptable visual acuity (approximately 20/20) received an application of the topical 3% glyceraldehyde solution ophthalmic drops four times per day (8:00, 12:00, 16:00, and 20:00) for a period of 1 month in conjunction with daytime lens wear for stabilization. Lens wear lasted for 8 to 12 hours per day. The subjects were examined periodically during the glyceraldehyde treatment to monitor changes in the health of the treated eyes.
(§4) At the end of the treatment period, the stabilizing lens were removed and the administration of the 3% glyceraldehyde solution was terminated. Following termination of the treatment, the subjects were examined immediately after treatment was terminated, once a week for the first four weeks after termination, and then monthly to measure changes in the visual acuity of the treated eyes. The health of the eye was also monitored. Sequelae characterized by the appearance or worsening of serious ocular symptoms or slit-lamp findings observed during these examinations was assessed. The proportions of subjects with such findings were analyzed.

[3] = tested on: eyes of myopic human subjects; assay: Mild myopia study, group II: 500 IU hyaluronidase, corrective lenses, 3% glyceraldehyde (Example 9); type: in vivo; conditions: 500 IU hyaluronidase and corrective lenses
Excerpt: as §1, §2, §3
The subjects of group II were treated as those in group I in preparation for their participation in the study reported here. Before beginning the experimental protocol, test subjects were examined initially to establish a baseline from which the future results of the treatment were compared.
Following the establishment of a baseline reading, group II subjects were fitted with contact lenses and wore the corrective lenses at night for a period of two (2) to seven (7) days or until an acceptable visual acuity (approximately 20/20) was achieved. Group II test subjects received 500 IU of hyaluronidase by injection as compared to the 50 IU of group I. Two groups of subjects received 500 IU of hyaluronidase. The results obtained from the first group are shown in Table IIIA and the results from the second group are shown in Table IIIA and are identified in the table by the notation Gr. VI. There were no meaningful differences in the treatment protocols between these two groups. Subjects achieving an acceptable visual acuity received the topical 3% glyceraldehyde solution in the form of ophthalmic drops four times per day (08:00, 12:00, 16:00, and 20:00) for a period of 1 month in conjunction with daytime lens wear for stabilization. During this period, lens were occurred for approximately 8-12 hours per day and there was no nocturnal lens wear.
The subjects were examined periodically during the glyceraldehyde treatment to monitor changes in the health of the treated eyes.
as §4, with “examinations were” for “examinations was”

hyaluronidase
change in corneal elasticity vs baseline (cornea): significant reduction in corneal elasticity | visual acuity [1]: 20/15 | visual acuity achieved by initial orthokeratological treatment ([2]; all subjects except ARR/001 and JLV/015, before drops): 20/20 | visual acuity achieved by initial orthokeratological treatment ([2]; subject 001, before glyceraldehyde drops): 20/25 | visual acuity achieved by initial orthokeratological treatment ([2]; subject 015, before glyceraldehyde drops): 20/40 | visual acuity achieved before glyceraldehyde drops ([3]; subject 013 (Table IIIA)): 20/40 | visual acuity achieved before glyceraldehyde drops ([3]; subject 104 (Table IIIB)): 20/50
